Source: US9149469B2, “Pharmaceutical composition and a process thereof” (INDUS Biotech PVT. Ltd., priority 2007, dated 2015)

Key:
[1] = test system: 6-OHDA unilateral lesion of the dopaminergic nigrostriatal pathway; experiment: 6-Hydroxydopamine model (rotation); type: in vivo, Male Wistar mice
Protocol: 6-Hydroxydopamine (6-OHDA) is a neurotoxin which causes a unilateral lesion of the dopaminergic nigrostriatal pathway that induces hypersensitivity of the post synaptic dopaminergic receptor in the striatum of the lesioned side. An indirect acting compound like amphetamine is administered the mice rotate toward the lesioned side (ipsilateral) as opposed to when a direct acting dopaminergic drug is administered which causes then to rotate contra laterally. Therefore, this test can be used for the study of central dopamine function and the evaluation of dopamine antagonists and agonists, particularly the activity of novel anti-parkinsonian drugs. This test clearly distinguishes drugs with predominantly dopamine receptor agonist activity from those with predominantly dopamine releasing activity of the drug.
Procedure: Male Wistar […] weighing 200-250 grams at the time of surgery are used. They are housed individually in a controlled environment with free access to food and water. The animals are anaesthetized with sodium pentobarbital. The head is placed in a stereotaxic device (DKI 900) and positioned according to the atlas of Konig and Klippel. After a sagittal cut is made in the skin of the skull, a 2 mm wide hole is drilled with an electrical trepan drill. Care is taken not to lesion the meninges. A 30 gauge stainless-steel cannula connected to a Hamilton syringe is aimed at the anterior zona compacta of the substantia nigra (coordinates anterior 1.88 mm, lateral 2.0 mm and dorso-ventral—8.2 mm from instrument zero). A total of 8 μg of […] in 4 γ/L of saline is injected at a rate of 1 γ/L/min. After the intra-cranial injection, the wound is closed.
The animal is allowed several weeks for recovery and for development of the lesion. Specially constructed opaque plastic spheres attached to solid state programming equipment serve as test chambers. The number of full turns, either ipsilateral or contra lateral to the lesion, are recorded on an automatic printout counter every 15 min for one or two hours test sessions. To determine the control values for ipsilateral turning, each subject is administered 2.5 mg/kg of d amphetamine and immediately placed in the circling chamber for 2 hours Control values for contra lateral circling are determined by injecting apomorphine at 1 mg/kg s.c. and recording the rat's circling for 1 hour. Test compounds are given i.p or sc. And the animals placed into the circling chambers. Circling is recorded over a 1 hour period. This experiment is conducted in 30 animals and the average is represented in the table

[2] = test system: Haloperidol induced catalepsy; experiment: Haloperidol induced catalepsy in mice (bar test); type: in vivo, Swiss Albino mice
From the text: Haloperidol is neuroleptic agent that blocks the Dopamine D2 receptor in the brain. This precipitates the extra-pyramidal side effects which can be measured by the “Bar Test for catalepsy in mice”. Catalepsy in mice is defined as a failure to correct an externally imposed unusual posture over a prolonged period of time. […] Haloperidol induced catalepsy can be reversed if dopaminergic drugs that supply dopamine to the striatum of the brain since it increase competitive antagonism.
Procedure: Swiss Albino mice of either sex weighing 23-28 g are used. Catalepsy was induced by Haloparidol (0.5 mg/kg i.p.) and assessed by bar test up to 3 hrs. Six animals are dosed with the saline, test drug and the standard intraperitonially. The animals are placed in translucent plastic boxes with a wooden dowel mounted horizontally 2.5 cm from the floor of the box. The animals are allowed to adapt to the box for 2 min. Then, each animal is grasped gently around the shoulders and under the forepaws and placed carefully on the dowel. The amount of the time spent with at least one forepaw on the bar is determined. When the animal removes its paws, the time is recorded and the mice are repositioned on the bar. Three trials are conducted for each animal at 30, 60, 120 and 360 min, with 6 animals in each group.

[3] = test system: oxotremorine induced tremors; experiment: Oxotremorine antagonism (tremor, salivation, lacrimation scores); type: in vivo, NMRI mice
Protocol: Oxotremorine is a cholinergic drug which is a muscarine agonist and induces parkinsonism-like signs such as tremors, ataxia, spasticity, salivation, lacrimation and hypothermia. Oxotremorine is a cholinergic drug, which induces excessive tremors in mice. If a drug is having anti-cholinergic property like atropine the tremors will be decreased.
Procedure: Groups of 6-10 male NMRI mice weighing 18-22 g are used. They are dosed orally with the test compound or the standard (5 mg/kg benezatropine mesilate) 1 hour prior to the administration of 0.5 mg/kg oxotremorine. Tremor is scored after oxotremorine dosage in periods of 5 min for 1 hour.
After the administration of 0.5 mg/kg of Oxotremorine, the tremors started within 15 mins and were sustained for 30 mins.

[4] = positive control 5 mg/kg and oxytremorine, n = 6

## CN1CCc2cccc3c2[C@H]1Cc1ccc(O)c(O)c1-3 [Apomorphine]
[1]; Apomorphine 0.3 mg/kg
  Contra-lateral Rotation: 169.33
  Ipsilateral Rotation: 0.67

## N[C@@H](Cc1ccc(O)c(O)c1)C(=O)O [L-Dopa, Dihydroxy Phenyl Alanine]
[2]; L-DOPA (10)+Hal (0.5) compared with Hal (0.5) at respective time, FIG. 1
  reduction of catalepsy: significant at P<0.001
[2]; L-Dopa 10 mg/kg compared with test drug 100 mg/kg
  reducing catalepsy, standard versus test drug: more effective than the test drug at a dosage of 100 mg/kg
[1]; L-Dopa 10 mg/kg
  Contra-lateral Rotation: 45.67
  Ipsilateral Rotation: 0.83

## CN1[C@@H]2CC[C@H]1C[C@@H](OC(=O)C(CO)c1ccccc1)C2 (stereo partly shown) [Atropine]
[3]; Atropine 1 mg/kg, FIG. 2
  decrease in severity of tremors: significant decrease in severity of tremors
[3]; Atropine, dose not given
  Lacrimation score at 30 minutes: 0.6
  Salivation score at 30 minutes: 0.8
[3]; [4]
  Tremor score 5 minutes: 0.9
  Tremor score 15 minutes: 0.9
  Tremor score 30 minutes: 1.0
  Tremor score 45 minutes: 1.3
